From the supplement of paper PMC11368000

What was measured:
Settings in all cases: exposure time: 90 min
1118 [1] = donor line of iPSC-derived cardiomyocytes; assay: POD (EC05) for decrease in beat frequency (negative chronotrope) vs vehicle; higher = less potent (higher point of departure)
Procedure, shortened: (§1)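 Cardiomyocytes from human iPSCs of 16 donors spent 14 days in gelatin-coated 384-well plates before 2 h of fluorescent Ca2+ dye loading. They were then held for 90 min at 37 °C at final concentrations of 0.1, 1, 10 and 100 µM containing 0.5% DMSO, and Ca2+ flux was read on a FLIPR Tetra (8 frames/s, 100 s) before and after. Donor-level points of departure were taken from hierarchical Bayesian Hill fits to vehicle-normalised beat frequency, decay-to-rise ratio or peak frequency. For these, a 5% change was the threshold, or a 95% loss for peak frequency.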

1565 = donor line of iPSC-derived cardiomyocytes; assay: POD (EC05) for increase in beat frequency (positive chronotrope) vs vehicle; higher = less potent (higher point of departure)
Protocol: (§2)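 Human iPSC-derived cardiomyocytes from 16 donors were exposed for 90 min at 37 °C to each PFAS at 0.1, 1, 10 and 100 µM in 0.5% DMSO, 384-well plates. Kinetic Ca2+ flux (FLIPR) and Hoechst nuclei counts were normalised to vehicle wells and fitted with a hierarchical Bayesian Hill model to give donor-specific PODs: EC05 for beat-rate increase or decrease and for decay-to-rise ratio increase (QT proxy), EC95 for peak-frequency loss (asystole), EC10 for total cell number loss. 0.03 µM is the lower bound.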

20084 = donor line of iPSC-derived cardiomyocytes; assay: as above
Protocol: as §2

1518 [2] = donor line of iPSC-derived cardiomyocytes; assay: as above
Protocol: as §2

30171 = donor line of iPSC-derived cardiomyocytes; assay: as above
Protocol: as §2

1516 [3] = donor line of iPSC-derived cardiomyocytes; assay: as above
Protocol: as §2

1392 = donor line of iPSC-derived cardiomyocytes; assay: as above
Protocol: as §2

1368 = donor line of iPSC-derived cardiomyocytes; assay: as above
Protocol: as §2

20032 = donor line of iPSC-derived cardiomyocytes; assay: as above
Protocol: as §2

11235 = donor line of iPSC-derived cardiomyocytes; assay: as above
Protocol: as §2

1083 = donor line of iPSC-derived cardiomyocytes; assay: as above
Protocol: as §2

1434 = donor line of iPSC-derived cardiomyocytes; assay: as above
Protocol: as §2

1531 = donor line of iPSC-derived cardiomyocytes; assay: as above
Protocol: as §2

1535 = donor line of iPSC-derived cardiomyocytes; assay: as above
Protocol: as §2

1118 [4] = assay: as above
Protocol: as §2

1309 = donor line of iPSC-derived cardiomyocytes; assay: as above
Protocol: as §2

1518 [5] = assay: POD (EC05) for increase in Ca2+ transient decay-to-rise ratio (QT prolongation) vs vehicle; higher = less potent (higher point of departure)
Procedure, shortened: as §1

30145 = donor line of iPSC-derived cardiomyocytes; assay: POD (EC05) for increase in beat frequency (positive chronotrope) vs vehicle; higher = less potent (higher point of departure)
Protocol: as §2

1516 [6] = assay: POD (EC05) for increase in Ca2+ transient decay-to-rise ratio (QT prolongation) vs vehicle; higher = less potent (higher point of departure)
Procedure, shortened: as §1

SMILES | POD vs vehicle 1118 [1] | POD vs vehicle 1565 | POD vs vehicle 20084 | POD vs vehicle 1518 [2] | POD vs vehicle 30171 | POD vs vehicle 1516 [3] | POD vs vehicle 1392 | POD vs vehicle 1368 | POD vs vehicle 20032 | POD vs vehicle 11235 | POD vs vehicle 1083 | POD vs vehicle 1434 | POD vs vehicle 1531 | POD vs vehicle 1535 | POD vs vehicle 1118 [4] | POD vs vehicle 1309 | POD vs vehicle 1518 [5] | POD vs vehicle 30145 | POD vs vehicle 1516 [6]
OCCC(F)(F)C(F)(F)C(F)(F)C(F)(F)F [4:2 Fluorotelomer alcohol] | 22.9 µM | > 100 µM | > 100 µM | > 100 µM | > 100 µM | > 100 µM | > 100 µM | > 100 µM | > 100 µM | > 100 µM | > 100 µM | > 100 µM | > 100 µM | > 100 µM | > 100 µM | > 100 µM |  |  | 
O=C(O)C(F)(F)OC(F)(F)C(F)(F)OC(F)(F)C(F)(F)OC(F)(F)C(F)(F)C(F)(F)C(F)(F)F [Perfluoro-3,6,9-trioxatridecanoic_acid] | 18.3 µM | > 100 µM | > 100 µM | > 100 µM | > 100 µM | > 100 µM | > 100 µM | > 100 µM | > 100 µM | > 100 µM | > 100 µM | > 100 µM | > 100 µM | > 100 µM | > 100 µM | > 100 µM | > 100 µM | > 100 µM | 
O=C(O)C(F)(F)C(F)(F)C(F)(F)C(F)(F)C(=O)O [Octafluoroadipic_acid] | > 100 µM | > 100 µM | > 100 µM | > 100 µM | > 100 µM | > 100 µM | > 100 µM | > 100 µM | > 100 µM | > 100 µM | > 100 µM | > 100 µM | > 100 µM | > 100 µM | > 100 µM | > 100 µM | > 100 µM | > 100 µM | > 100 µM
O=S(=O)(OCC(F)(F)F)C(F)(F)C(F)(F)C(F)(F)C(F)(F)F [2,2,2-Trifluoroethyl_perfluorobutanesulfonate] | > 100 µM | > 100 µM | > 100 µM | > 100 µM | > 100 µM | > 100 µM | > 100 µM | > 100 µM | > 100 µM | > 100 µM | > 100 µM | > 100 µM | > 100 µM | > 100 µM | > 100 µM | > 100 µM |  | > 100 µM | 
NC(=O)C(F)(F)C(F)(F)C(F)(F)C(F)(F)C(F)(F)C(F)(F)C(F)(F)F [Perfluorooctanamide] | > 100 µM | > 100 µM | > 100 µM | > 100 µM | > 100 µM | > 100 µM | > 100 µM | > 100 µM | > 100 µM | > 100 µM | > 100 µM | > 100 µM | > 100 µM | > 100 µM | > 100 µM | > 100 µM |  | > 100 µM | > 100 µM
OCC(F)(F)OC(F)(F)C(F)(F)OC(F)(F)C(F)(F)OC(F)(F)F [Fluorinated_triethylene_glycol_monomethyl_ether] | 2.52 µM | > 100 µM | > 100 µM |  |  |  | > 100 µM | > 100 µM | > 100 µM | > 100 µM | > 100 µM | > 100 µM | > 100 µM | > 100 µM | > 100 µM | > 100 µM | > 100 µM |  | > 100 µM
O=C([O-])C(F)(F)C(F)(F)C(F)(F)C(F)(F)C(F)(F)C(F)(F)C(F)(F)F.[NH4+] [Ammonium_perfluorooctanoate] | 11 µM | > 100 µM | > 100 µM | > 100 µM | > 100 µM | > 100 µM | > 100 µM | > 100 µM | > 100 µM | > 100 µM |  | > 100 µM | > 100 µM | > 100 µM | > 100 µM | > 100 µM |  |  | > 100 µM
OCC(F)(F)C(F)(F)C(F)(F)C(F)(F)C(F)(F)C(F)(F)F [6:1 Fluorotelomer alcohol] | 0.554 µM | > 100 µM | > 100 µM | > 100 µM | > 100 µM | > 100 µM | > 100 µM | > 100 µM | > 100 µM | > 100 µM | > 100 µM | > 100 µM | > 100 µM | > 100 µM | > 100 µM | > 100 µM |  | > 100 µM | > 100 µM
N=C(N)C(F)(F)C(F)(F)C(F)(F)C(F)(F)C(F)(F)C(F)(F)C(F)(F)F [Perfluorooctanamidine] | 0.128 µM | > 100 µM | > 100 µM | > 100 µM | > 100 µM | > 100 µM | > 100 µM | > 100 µM | > 100 µM | > 100 µM | > 100 µM | > 100 µM | > 100 µM | > 100 µM | > 100 µM | > 100 µM |  | > 100 µM | > 100 µM
NC(=O)C(F)(F)C(F)(F)C(F)(F)F [Heptafluorobutyramide] | > 100 µM | > 100 µM | > 100 µM | > 100 µM | > 100 µM | > 100 µM | > 100 µM | > 100 µM | > 100 µM | > 100 µM | > 100 µM | > 100 µM | > 100 µM | > 100 µM | > 100 µM | > 100 µM |  |  | 
O=C(O)C(F)(F)C(F)(F)C(F)(F)C(F)(F)C(F)(F)C(F)(F)F [Perfluoroheptanoic_acid] | 39.8 µM | > 100 µM | > 100 µM | > 100 µM | > 100 µM | > 100 µM | > 100 µM | > 100 µM | > 100 µM | > 100 µM | > 100 µM | > 100 µM | > 100 µM | > 100 µM | > 100 µM | > 100 µM |  | > 100 µM | 
